In PubChem BioAssay (NCI):
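Dose response: 5 concentrations. Exposure: 48 h. Format: 96-well plates. Endpoint: linear interpolation; highest concentration if not reached. GI50 = concentration required for 50% inhibition of growth. TGI is the concentration that stops growth completely.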

Legend:
Assay in all cases: NCI tumour cell line growth inhibition, 48 h
EKVX NSCLC = system: EKVX NSCLC
SF-268 CNS = system: SF-268 CNS
SK-MEL-28 melanoma = system: SK-MEL-28 melanoma
SK-OV-3 ovarian = system: SK-OV-3 ovarian
LOX IMVI melanoma = system: LOX IMVI melanoma
HOP-92 NSCLC = system: HOP-92 NSCLC
SNB-19 CNS = system: SNB-19 CNS
BT-549 breast = system: BT-549 breast
TK-10 renal = system: TK-10 renal
OVCAR-8 ovarian = system: OVCAR-8 ovarian
DU-145 prostate = system: DU-145 prostate
ACHN renal = system: ACHN renal
SK-MEL-5 melanoma = system: SK-MEL-5 melanoma
NCI-H226 lung = system: NCI-H226 lung
SF-295 CNS = system: SF-295 CNS
KM12 colon = system: KM12 colon
U251 CNS = system: U251 CNS
SNB-75 CNS = system: SNB-75 CNS
NCI/ADR-RES ovarian = system: NCI/ADR-RES ovarian
M14 melanoma = system: M14 melanoma
OVCAR-3 ovarian = system: OVCAR-3 ovarian
RPMI-8226 leukemia = system: RPMI-8226 leukemia
SN12C renal = system: SN12C renal
OVCAR-4 ovarian = system: OVCAR-4 ovarian
CAKI-1 renal = system: CAKI-1 renal
CCRF-CEM leukemia = system: CCRF-CEM leukemia
MOLT-4 leukemia = system: MOLT-4 leukemia
SR leukemia = system: SR leukemia
MCF7 breast = system: MCF7 breast
HCT-15 colon = system: HCT-15 colon
HCC-2998 colon = system: HCC-2998 colon
SF-539 CNS = system: SF-539 CNS
SW-620 colon = system: SW-620 colon
A549 NSCLC = system: A549 NSCLC
HCT-116 colon = system: HCT-116 colon
HS 578T breast = system: HS 578T breast
786-0 renal = system: 786-0 renal
NCI-H460 lung = system: NCI-H460 lung
HL-60(TB) leukemia = system: HL-60(TB) leukemia
HOP-62 NSCLC = system: HOP-62 NSCLC
OVCAR-5 ovarian = system: OVCAR-5 ovarian
K-562 leukemia = system: K-562 leukemia
SK-MEL-2 melanoma = system: SK-MEL-2 melanoma
UACC-62 melanoma = system: UACC-62 melanoma
T-47D breast = system: T-47D breast
NCI-H23 lung = system: NCI-H23 lung
RXF 393 renal = system: RXF 393 renal
MDA-MB-231 breast = system: MDA-MB-231 breast
UACC-257 melanoma = system: UACC-257 melanoma
UO-31 renal = system: UO-31 renal
PC-3 prostate = system: PC-3 prostate
HT29 colon = system: HT29 colon
IGROV1 ovarian = system: IGROV1 ovarian
NCI-H522 lung = system: NCI-H522 lung
A498 renal = system: A498 renal
MDA-MB-435 = system: MDA-MB-435
MALME-3M melanoma = system: MALME-3M melanoma
COLO 205 colon = system: COLO 205 colon

Q: Which results are given for `COc1cc(C2CC(c3ccc4c(c3)OCO4)=NN2C=O)cc(OC)c1OC` (stereo not drawn)?
A: GI50 (EKVX NSCLC): 3.74 µM; TGI (EKVX NSCLC): > 100 µM; GI50 (SF-268 CNS): 6.88 µM; TGI (SF-268 CNS): > 100 µM; GI50 (SK-MEL-28 melanoma): 6.36 µM; TGI (SK-MEL-28 melanoma): > 100 µM; GI50 (SK-OV-3 ovarian): 2.25 µM; TGI (SK-OV-3 ovarian): > 100 µM; GI50 (LOX IMVI melanoma): 1.27 µM; TGI (LOX IMVI melanoma): > 100 µM; TGI (HOP-92 NSCLC): > 100 µM; GI50 (SNB-19 CNS): 6.3 µM; TGI (SNB-19 CNS): > 100 µM; GI50 (BT-549 breast): 5.21 µM; TGI (BT-549 breast): > 100 µM; GI50 (TK-10 renal): > 29.9 µM; TGI (TK-10 renal): > 100 µM; GI50 (OVCAR-8 ovarian): > 23.3 µM; TGI (OVCAR-8 ovarian): > 100 µM; GI50 (DU-145 prostate): 2.63 µM; TGI (DU-145 prostate): > 26.1 µM; GI50 (ACHN renal): 3.53 µM; TGI (ACHN renal): > 100 µM; GI50 (SK-MEL-5 melanoma): 2.39 µM; TGI (SK-MEL-5 melanoma): 8.11 µM; GI50 (NCI-H226 lung): 8.06 µM; TGI (NCI-H226 lung): > 100 µM; GI50 (SF-295 CNS): 0.735 µM; TGI (SF-295 CNS): 4.26 µM; GI50 (KM12 colon): 1.17 µM; TGI (KM12 colon): > 100 µM; GI50 (U251 CNS): 4.42 µM; TGI (U251 CNS): > 100 µM; GI50 (SNB-75 CNS): 1.13 µM; TGI (SNB-75 CNS): 5.43 µM; GI50 (NCI/ADR-RES ovarian): 1.13 µM; TGI (NCI/ADR-RES ovarian): > 20.1 µM; GI50 (M14 melanoma): 1.3 µM; TGI (M14 melanoma): > 100 µM; GI50 (OVCAR-3 ovarian): 0.965 µM; TGI (OVCAR-3 ovarian): 3.25 µM; GI50 (RPMI-8226 leukemia): 5.17 µM; TGI (RPMI-8226 leukemia): > 64.6 µM; GI50 (SN12C renal): 13.6 µM; TGI (SN12C renal): > 100 µM; GI50 (OVCAR-4 ovarian): 6.86 µM; TGI (OVCAR-4 ovarian): > 100 µM; GI50 (CAKI-1 renal): 1.25 µM; TGI (CAKI-1 renal): > 100 µM; GI50 (CCRF-CEM leukemia): 2.48 µM; TGI (CCRF-CEM leukemia): > 100 µM; GI50 (MOLT-4 leukemia): 4.34 µM; TGI (MOLT-4 leukemia): > 100 µM; GI50 (SR leukemia): 0.52 µM; TGI (SR leukemia): > 100 µM; GI50 (MCF7 breast): 1.34 µM; TGI (MCF7 breast): > 100 µM; GI50 (HCT-15 colon): 1.58 µM; TGI (HCT-15 colon): > 100 µM; GI50 (HCC-2998 colon): 4.44 µM; TGI (HCC-2998 colon): > 100 µM; GI50 (SF-539 CNS): 2.06 µM; TGI (SF-539 CNS): 13 µM; GI50 (SW-620 colon): 1.21 µM; TGI (SW-620 colon): > 100 µM; GI50 (A549 NSCLC): > 24.5 µM; TGI (A549 NSCLC): > 100 µM; GI50 (HCT-116 colon): 1.52 µM; TGI (HCT-116 colon): > 100 µM; GI50 (HS 578T breast): 2.43 µM; TGI (HS 578T breast): 28.5 µM; GI50 (786-0 renal): 5.26 µM; TGI (786-0 renal): > 100 µM; GI50 (NCI-H460 lung): 1.37 µM; TGI (NCI-H460 lung): > 100 µM; GI50 (HL-60(TB) leukemia): 0.935 µM; GI50 (HOP-62 NSCLC): 2.81 µM; TGI (HOP-62 NSCLC): > 100 µM; GI50 (OVCAR-5 ovarian): 12.2 µM; TGI (OVCAR-5 ovarian): > 100 µM; GI50 (K-562 leukemia): 0.621 µM; TGI (K-562 leukemia): > 100 µM; GI50 (SK-MEL-2 melanoma): 9.46 µM; TGI (SK-MEL-2 melanoma): > 100 µM; GI50 (UACC-62 melanoma): 2.21 µM; TGI (UACC-62 melanoma): > 100 µM; GI50 (T-47D breast): 3.34 µM; TGI (T-47D breast): > 100 µM; GI50 (NCI-H23 lung): 4.14 µM; TGI (NCI-H23 lung): > 100 µM; GI50 (RXF 393 renal): 4.05 µM; TGI (RXF 393 renal): 22.2 µM; GI50 (MDA-MB-231 breast): > 25.3 µM; TGI (MDA-MB-231 breast): > 100 µM; GI50 (UACC-257 melanoma): > 20.3 µM; TGI (UACC-257 melanoma): > 100 µM; GI50 (UO-31 renal): 3.81 µM; TGI (UO-31 renal): > 100 µM; GI50 (PC-3 prostate): 4.92 µM; TGI (PC-3 prostate): > 100 µM; GI50 (HT29 colon): 0.467 µM; TGI (HT29 colon): > 100 µM; GI50 (IGROV1 ovarian): 2.37 µM; TGI (IGROV1 ovarian): > 100 µM; GI50 (NCI-H522 lung): 1.22 µM; TGI (NCI-H522 lung): > 27.6 µM; GI50 (A498 renal): 0.828 µM; GI50 (MDA-MB-435): 0.26 µM; TGI (MDA-MB-435): 1.13 µM; GI50 (MALME-3M melanoma): 1.93 µM; TGI (MALME-3M melanoma): > 100 µM; GI50 (COLO 205 colon): 1.3 µM; TGI (COLO 205 colon): 5.91 µM
